Assay results published in US6376488B1, “Benzoxazine α-1 adrenergic compounds” (Abbott Laboratories, priority 2000, dated 2002).
Structures can show the parent of a compound that is named as a salt.

target: T1, α1b (Hamster) adrenoreceptor (Mesocricetus auratus, UniProt P18841); assay: [3H]-prazosin radioligand binding, cloned α1b (hamster) adrenoreceptor in LTK cells; conditions: cloned receptor in LTK cell membranes, [3H]prazosin 0.2 nM
T1 sequence (P18841 1-515): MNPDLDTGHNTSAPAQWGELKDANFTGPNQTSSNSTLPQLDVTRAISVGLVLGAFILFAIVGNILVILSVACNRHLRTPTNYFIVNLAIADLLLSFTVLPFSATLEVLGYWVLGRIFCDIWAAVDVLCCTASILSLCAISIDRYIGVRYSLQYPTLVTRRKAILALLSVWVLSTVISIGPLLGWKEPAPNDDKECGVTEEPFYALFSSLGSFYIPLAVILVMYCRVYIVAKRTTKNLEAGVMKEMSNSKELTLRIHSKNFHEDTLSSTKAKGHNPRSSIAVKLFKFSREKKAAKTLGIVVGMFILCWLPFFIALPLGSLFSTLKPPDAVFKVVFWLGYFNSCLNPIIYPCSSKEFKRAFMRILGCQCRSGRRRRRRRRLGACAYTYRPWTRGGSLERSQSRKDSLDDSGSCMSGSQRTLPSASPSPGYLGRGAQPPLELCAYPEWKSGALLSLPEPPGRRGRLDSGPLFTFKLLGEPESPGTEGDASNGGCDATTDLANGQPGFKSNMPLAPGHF
Excerpt: The cDNA clones encoding the α1, adrenoreceptors were obtained from TULCO (Triangle Universities Licensing Consortium, Research Triangle Park, N.C.) and inserted into the eukaryotic expression vector SnaB30. In this vector, expression of the adrenoreceptor gene is under the transcriptional control of an SV40 early promoter. Positive drug selection is provided by a neomycin-resistance gene. Mouse fibroblast cells (LTK) were transfected with the α1 expression plasmids and grown in Dulbecco's modified Eagle's medium (DMEM) containing 10% fetal calf serum and 30 μM G418. […] Stable single cell clones derived from the parental lines were screened in adrenoreceptor binding assays to identify clones having high adrenoreceptor density. Roller bottle cultures of the cloned lines were used to provide cell membranes for subsequent adrenoreceptor binding characterization studies. A cell line containing the SnaB30 vector expressing the human erythropoietin gene served as a negative control.
For adrenoreceptor binding assays, large scale membrane preparations were utilized in which 6 million cells were seeded into small (450 cm^2) Coming tissue culture roller bottles. DMEM (200 mL) containing 10% fetal calf serum and 300 μM G418 were added to each roller bottle. A 95% air/5% CO2 gas mixture (sterile) was injected into each roller bottle prior to sealing, and the bottles were then incubated at 37° C. on a roller rack for 5 days. Cells were refed with fresh medium after 3 days in culture.
On the fifth day of culture, growth medium was removed from cells grown in roller bottles, and the cells were washed twice with PBS (Sigma, 120 mM NaCl, 2.7 mM KCl, 10 mM Na2HPO4-NaH2PO4, pH=7.4). Cells were detached from the roller bottles by incubating for 15 minutes at 37° C. in a Tris-EDTA solution (10 mM Tris, 100 mM NaCl, 1 mM EDTA, pH=7.4). The cell suspension from each roller bottle was decanted into tared centrifuge tubes and kept on ice. An aliquot of each cell suspension was generally taken for cell counting. Cells were centrifuged at 3000×G for 5 minutes at 2-4° C., washed with PBS and recentrifuged. The supernatant was decanted, and the pellet was weighed to determine the wet weight of cells. Cells were washed a final time in 40 vol 5 mM Tris-HCl, 5 mM EDTA, pH=7.7 and centrifuged at 40,000×G for 10 minutes (“vol” indicates volume/weight, e.g., a “vol” of 40 would indicate that the one gram of cells were washed with 40 mls of buffer). Cells were homogenized in of 50 mM Tris-HCl, 5 mM EDTA (pH=7.4) (10 mL) and diluted to 40 mL/tube. Homogenates were centrifuged at 40,000×G for 10 minutes. The supernatant was decanted and the pellets rehomogenized in 50 mM Tris-HCl (pH=7.4) and centrifuged as before.
Following equilibration, bound radioligand was separated from free on GF/B filters (presoaked in 0.5% polyethyleneimine) using ither a Brandel or Packard cell harvester. Radioactivity was determined by standard liquid scintillation techniques.

Ki	Compound
14.3 nM	Cl.Cl.O=c1[nH]c2c(sc3cccnc32)c(=O)n1CCCN1CCN2c3ccccc3OCC2C1 (single isomer, unassigned; (+)) [Example 1, (+) 3-[3-(1,2,4a,5-tetrahydropyrazino[2,1-c][1,4]benzoxazin-3(4H)-yl)propyl]pyrido[2′,3′:4,5]thieno[3,2-d]pyrimidine-2,4(1H,3H)-dione dihydrochloride]
32.4 nM	Cl.Cl.O=c1[nH]c2c(sc3cccnc32)c(=O)n1CCCCN1CCN2c3ccccc3OCC2C1 (single isomer, unassigned; (+)) [Example 3, (+) 3-[4-(1,2,4a,5-tetrahydropyrazino[2,1-c][1,4]benzoxazin-3(4H)-yl)butyl]pyrido[2′, 3′:4,5]thieno[3,2-d]pyrimidine-2,4(1H,3H)-dione dihydrochloride]
40.6 nM	Cl.Cl.O=c1[nH]c2c(sc3ncccc32)c(=O)n1CCCCN1CCN2c3ccccc3OCC2C1 (single isomer, unassigned; (+)) [Example 5, (+) 3-[4-(1,2,4a,5-tetrahydropyrazino[2,1-c][1,4]benzoxazin-3(4H)-yl)butyl]pyrido[3′, 2′:4,5]thieno[3,2-d]pyrimidine-2,4(1H,3H)-dione dihydrochloride]
58.1 nM	COc1cccc2c1N1CCN(CCn3c(=O)[nH]c4c(sc5ncc(Cl)nc54)c3=O)CC1CO2.Cl.Cl (single isomer, unassigned; (+)) [Example 8, (+) 3-[2-(10-methoxy-1,2,4a,5-tetrahydropyrazino[2,1-c][1,4]benzoxazin-3(4H)-yl)ethyl]-8-chloropyrazino[2′,3′:4,5]thieno[3,2-d]pyrimidine-2,4(1H,3H)-dione dihydrochloride]
8.32 nM	COc1cccc2c1N1CCN(CCCCn3c(=O)[nH]c4c(sc5cccnc54)c3=O)CC1CO2 (single isomer, unassigned; (+)) [Example 14, (+) 3-[4-(10-methoxy-1,2,4a,5-tetrahydropyrazino[2,1-c][1,4]benzoxazin-3(4H)-yl)butyl]pyido [2′,3′:4,5]thieno[3,2-d]pyrimidine-2,4(1H,3H)-dione trihydrochloride]
13.8 nM	COc1cccc2c1N1CCN(CCCCn3c(=O)[nH]c4c(sc5ncccc54)c3=O)CC1CO2.Cl.Cl.Cl (single isomer, unassigned; (+)) [Example 15, (+) 3-[4-(10-methoxy-1,2,4a,5-tetrahydropyrazino[2,1-c][1,4]benzoxazin-3(4H)-yl)butyl]pyrido[3′,2′:4,5]thieno[3,2-d]pyrimidine-2,4(1H,3H)-dione trihydrochloride]
11.8 nM	COc1cccc2c1N1CCN(CCn3c(=O)[nH]c4c(sc5cccnc54)c3=O)CC1CO2.Cl.Cl.Cl (single isomer, unassigned; (+)) [Example 16, (+) 3-[2-(10-methoxy-1,2,4a,5-tetrahydropyrazino[2,1-c][1,4]benzoxazin-3(4H)-yl)ethyl]pyrido[2′,3′:4,5]thieno[3,2-d]pyrimidine-2,4(1H,3H)-dione trihydrochloride]
40.4 nM	COc1cccc2c1N1CCN(CCCn3c(=O)[nH]c4c(sc5cccnc54)c3=O)CC1CO2.Cl.Cl.Cl (single isomer, unassigned; (+)) [Example 17, (+) 3-[3-(10-methoxy-1,2,4a,5-tetrahydropyrazino[2,1-c][1,4]benzoxazin-3(4H)-yl)propyl]pyrido[2′,3′:4,5]thieno[3,2-d]pyrimidine-2,4(1H,3H)-dione trihydrochloride]
24.6 nM	O=c1[nH]c2c(sc3cccnc32)c(=O)n1CCCN1CCN2c3ccccc3OCC2C1 (single isomer, unassigned; (-)) [Example 2, (−) 3-[3-(1,2,4a,5-tetrahydropyrazino[2,1-c][1,4]benzoxazin-3(4H)-yl)propyl]pyrido[2′,3′:4,5]thieno[3,2-d]pyrimidine-2,4(1H,3H)-dione dihydrochloride]
26.5 nM	O=c1[nH]c2c(sc3cccnc32)c(=O)n1CCCCN1CCN2c3ccccc3OCC2C1 (single isomer, unassigned; (-)) [Example 4, (−) 3-[4-(1.2,4a,5-tetrahydropyrazino[2,1-c][1,4benzoxazin-3(4H)-yl)butyl]pyrido[2′,3′:4,5]thieno[3,2-d]pyrimidine-2,4(1H,3H)-dione dihydrochloride]
27.3 nM	Cl.Cl.O=c1[nH]c2c(sc3ncccc32)c(=O)n1CCCCN1CCN2c3ccccc3OCC2C1 (single isomer, unassigned; (-)) [Example 6, (−) 3-[4-(1,2,4a,5-tetrahydropyrazino[2,1-c][1,4]benzoxazin-3(4H)-yl)butyl]pyrido[3′, 2′:4,5]thieno[3,2-d]pyrimidine-2,4(1H,3H)-dione dihydrochloride]
6.89 nM	COc1cccc2c1N1CCN(CCn3c(=O)[nH]c4c(sc5cccnc54)c3=O)CC1CO2.Cl.Cl (single isomer, unassigned; (-)) [Example 7, (−) 3-[2-(10methoxy-1,2,4a,5-tetrahydropyrazino[2,1-c][1,4]benzoxazin-3(4H)-yl)ethyl]pyrido[2′,3′:4,5]thieno[3,2-d]pyrimidine-2,4(1H,3H)-dione dihydrochloride]
3.86 nM	COc1cccc2c1N1CCN(CCCn3c(=O)[nH]c4c(sc5cccnc54)c3=O)CC1CO2.Cl.Cl.Cl (single isomer, unassigned; (-)) [Example 9, (−) 3-[3-(10-methoxy-1,2,4a,5-tetrahydropyrazino[2,1-c][1,4]benzoxazin-3(4H)-yl)propyl]pyrido[2′,3′:4,5]thieno[3,2-d]pyrimidine-2,4(1H, 3H)-dione trihydrochloride]
2.71 nM	COc1cccc2c1N1CCN(CCCCn3c(=O)[nH]c4c(sc5ncccc54)c3=O)CC1CO2 (single isomer, unassigned; (-)) [Example 11, (−) 3-[4-(10-methoxy-1,2,4a,5-tetrahydropyrazino[2,1-c][1,4]benzoxazin-3(4H)-yl)butyl]pyrido[3′,2′:4.5]thieno[3,2-d]pyrimidine-2,4(1H,3H)-dione trihydrochloride]
8.91 nM	COc1cccc2c1N1CCN(CCCCn3c(=O)[nH]c4c(sc5ncc(Cl)nc54)c3=O)CC1CO2.Cl.Cl (single isomer, unassigned; (-)) [Example 12, (−) 3-[4-(10-methoxy-1,2,4a,5-tetrahydropyrazino[2,1-c][1,4]benzoxazin-3(4H)-yl)butyl]-8-chloropyrazino[2′,3′:4,5]thieno[3,2-d]pyrimidine-2,4(1H,3H)-dione dihydrochloride]
39.1 nM	COc1cccc2c1N1CCN(CCn3c(=O)[nH]c4c(sc5ncc(Cl)nc54)c3=O)CC1CO2.Cl.Cl (single isomer, unassigned; (-)) [Example 13, (−) 3-[2-(10-methoxy-1,2,4a,5-tetrahydropyrazino[2,1-c][1,4]benzoxazin-3(4H)-yl)ethyl]-8-chloropyrazino[2′,3′:4,5]thieno[3,2-d]pyrimidine-2,4(1H,3H)-dione dihydrochloride]

Compound	Ki
(−) 3-[3-(10-methoxy-1,2,4a,5-tetrahydropyrazino[2,1-c][1,4]benzoxazin-3(4H)-yl)butyl]pyrido[2′,3′:4,5]thieno[3,2-d]pyrimidine-2,4(1H,3H)-dione trihydrochloride [Example 10]	1.81 nM
